In assay [1] the target is recombinant human Mcl-1 (residues 171-327) / Bim interaction (Homo sapiens (Human), UniProt Q07820). The assay is described as follows: biochemical. The class given is binding. The following applies: read-out: Mcl-1 HTRF IC50. Background: Time-resolved FRET reads energy transfer from a long-lived donor to a nearby acceptor.
Experimental: The inhibition of the Mcl-1/Bim interaction was measured using a time-resolved fluorescence resonance energy transfer (TR-FRET) assay. […] The TR-FRET assay was conducted in a 384-well white OptiPlate™ (PerkinElmer, Waltham, Mass.) in a total volume of 40 μL. The reaction mixture contained 0.1 nM Mcl-1(171-327), 0.05 nM biotin-Bim (51-76), 0.05 nM LANCE® Eu-W1024 Anti-6×His (PerkinElmer), 0.072 nM Streptavidin-Xlent (Cisbio, Bedford, Mass.), and serially diluted test compounds in the binding buffer of 20 mM Hepes, pH 7.5, 150 mM NaCl, 0.016 mM Brij®35, and 1 mM dithiothreitol. Test compounds were pre-incubated with Mcl-1(171-327) and biotin-Bim (51-76) for 60 min before addition of the detection mixture (LANCE® Eu-W1024 Anti-6×His and Streptavidin-Xlent). The reaction plates were further incubated overnight and then were read on an Envision® multimode reader (PerkinElmer). Fluorescence signals were measured at 620 nm (40-nm bandwidth) and 665 nm (7.5-nm bandwidth) with a 60 is delay after excitation at 320 nm (75-nm bandwidth). The signal ratio at 665/620 nm corresponded to the Mcl-1/Bim interaction and was used in all data analyses. The IC50 values of test compounds were determined from duplicate data by analyzing competition curves using a four-parameter sigmoidal model in GraphPad Prism (GraphPad Software, San Diego, Calif.) or in Genedata Screener® (Genedata, Basel, Switzerland).
The subject of assay [2] is human multiple myeloma cell line, OPM-2. The assay is described as follows: Cell viability assay (OPM-2 10 FBS), CellTiter-Glo. The class given is cell-based. A digest of the protocol: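 3000 cells/well, RPMI 1640 + 10% FBS; serial compound dilutions, 16 h, 37 °C/5% CO2.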
In general terms: In ATP-based viability assays light output follows the ATP content of the culture.

The mark [3] stands for this setting: TR-FRET, Mcl-1(171-327) / biotin-Bim (51-76).
Setting [4] is: 0.1 nM Mcl-1(171-327), 0.05 nM biotin-Bim (51-76).
Setting [5] is: Homo sapiens, OPM-2, 16 h, read-out: OPM-2 10% FBS IC50 IP, OPM-2 cells, 10% FBS, 16 h incubation.

The results in this text go back to US10821115B2, “Compounds that inhibit Mcl-1 protein” (priority 2017, dated 2020).

pIC50: −log10 of the molar value. Read-outs that look alike come from different tables or passages of the source.

Sequence of recombinant human Mcl-1 (residues 171-327) / Bim interaction (Q07820 171-327): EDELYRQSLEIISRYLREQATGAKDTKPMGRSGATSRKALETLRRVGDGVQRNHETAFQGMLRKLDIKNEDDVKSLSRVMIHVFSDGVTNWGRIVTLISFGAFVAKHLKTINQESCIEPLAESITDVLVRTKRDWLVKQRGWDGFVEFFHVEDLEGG

Regarding `C[C@@H]1[C@@H](C)C/C=C/[C@@](O)(C#CCCCN2CCOCC2)[C@@H]2CC[C@H]2CN2C[C@@]3(CCCc4cc(Cl)ccc43)COc3ccc(cc32)C(=O)NS1(=O)=O` [Example 100493, (1S,3′R,6′R,7′S,8′E,11′S,12′R)-6-chloro-7′-hydroxy-11′,12′-dimethyl-7′-(5-(4-morpholinyl)-1-pentyn-1-yl)-3,4-dihydro-2H,15′H-spiro[naphthalene-1,22′-[20]oxa[13]thia[1,14]diazatetracyclo [14.7.2.0~3,6~.0~19,24~]pentacosa[8,16,18,24]tetraen]-15′-one 13′,13′-dioxide], the negative logarithm of the IC50 (pIC50) – broadly, the negative decadic logarithm of the IC50, by convention in mol/L – in assay [1] (setting [3]) was 9.49. On the same count and under the same terms, next, `CC#C[C@]1(O)CCCCCS(=O)(=O)NC(=O)c2ccc3c(c2)N(C[C@@H]2CC[C@H]21)C[C@@]1(CCCc2cc(Cl)ccc21)CO3` [Example 100025, (1S,3′R,6′R,7′S)-6-chloro-7′-hydroxy-7′-(1-propyn-1-yl)-3,4-dihydro-2H,15′H-spiro[naphthalene-1,22′-[20]oxa[13]thia[1,14]diazatetracyclo [14.7.2.0~3,6~.0~19,24~]pentacosa[16,18,24]trien]-15′-one 13′,13′-dioxide]: 8.63. Turning to `CCO[C@@]1(CN2CCN3CCOC[C@@H]3C2)/C=C/C[C@H](C)[C@@H](C)S(=O)(=O)NC(=O)c2ccc3c(c2)N(C[C@@H]2CC[C@H]21)C[C@@]1(CCCc2ccccc21)CO3` [Example 105, (1S,3′R,6′R,7′S,8′E,11′S,12′R)-7′-ethoxy-7′-((9aS)-hexahydropyrazino[2,1-c][1,4]oxazin-8(1H)-ylmethyl)-11′,12′-dimethyl-3,4-dihydro-2H, 15′H-spiro[naphthalene-1,22′-[20]oxa[13]thia[1,14]diazatetracyclo[14.7.2.0-3,6˜.0˜19,24˜]pentacosa[8,16,18,24]tetraen]-15′-one 13′,13′-dioxide], in assay [1] (setting [4]), the negative-log IC50 (pIC50) was 9.37. Consider `C[C@@H]1CS(=O)(=O)NC(=O)c2ccc3c(c2)N(C[C@@H]2CC[C@H]2[C@](O)(CN2CCN4CCOC[C@@H]4C2)CC[C@@H]1C)C[C@@]1(CCCc2cc(Cl)ccc21)CO3` [Example 405, (1S,3′R,6′R,7′S,10′S,11′S)-6-chloro-7′-((9aS)-hexahydropyrazino[2,1-c][1,4]oxazin-8(1H)-ylmethyl)-7′-hydroxy-10′,11′-dimethyl-3,4-dihydro-2H, 15′H-spiro[naphthalene-1,22′-[20]oxa[13]thia[1,14]diazatetracyclo[14.7.2.0-3,6˜.0˜19,24˜]pentacosa[16,18,24]trien]-15′-one 13′,13′-dioxide], for which the negative logarithm of the IC50 (pIC50) in assay [1] (setting [4]) was 10.24.

With `C[C@H]1CC/C=C/[C@@](C)(O)[C@@H]2CC[C@H]2CN2C[C@@]3(CCCc4cc(Cl)ccc43)COc3ccc(cc32)C(=O)NS1(=O)=O` [Example 100030, (1S,3′R,6′R,7′R,8′E,12′S)-6-chloro-7′-hydroxy-7′,12′-dimethyl-3,4-dihydro-2H,15′H-spiro[naphthalene-1,22′-[20]oxa[13]thia[1,14]diazatetracyclo [14.7.2.0~3,6~.0~19,24~]pentacosa[8,16,18,24]tetraen]-15′-one 13′,13′-dioxide], in assay [1] (setting [3]), the pIC50 is 7.98. Still for that read-out and setting: next, `CC[C@@H]1CC/C=C/[C@@](O)(CO)[C@@H]2CC[C@H]2CN2C[C@@]3(CCCc4cc(Cl)ccc43)COc3ccc(cc32)C(=O)NS1(=O)=O` [Example 100034, (1S,3′R,6′R,7′S,8′E,12′R)-6-chloro-12′-ethyl-7′-hydroxy-7′-(hydroxymethyl)-3,4-dihydro-2H,15′H-spiro[naphthalene-1,22′-[20]oxa[13]thia[1,14]diazatetracyclo [14.7.2.0~3,6~.0~19,24~]pentacosa[8,16,18,24]tetraen]-15′-one 13′,13′-dioxide]: 9.06. For `C[C@@H]1[C@@H](C)C/C=C/[C@@]2(CN3CCOC[C@H]3CO2)[C@@H]2CC[C@H]2CN2C[C@@]3(CCCc4cc(Cl)ccc43)COc3ccc(cc32)C(=O)NS1(=O)=O` [Example 99, (1S,3′R,6′R,7′S,8′E,9a″S,11′S,12′R)-6-chloro-11′,12′-dimethyl-3,4,6″,7″,9″,9a″-hexahydro-1″H,2H,15′H-dispiro[naphthalene-1,22′-[20]oxa[13]thia[1,14]diazatetracyclo[14.7.2.0˜3,6˜.0˜19,24˜]pentacosa[8,16,18,24]tetraene-7′,3″-[1,4]oxazino[3,4-c][1,4]oxazin]-15′-one 13′,13′-dioxide], the negative logarithm of the IC50 (pIC50) in assay [1] (setting [4]) is 9.61. In the case of `C[C@H]1CCCC[C@](C)(O)[C@@H]2CC[C@H]2CN2C[C@@]3(CCCc4cc(Cl)ccc43)COc3ccc(cc32)C(=O)NS1(=O)=O` [Example 100031, (1S,3′R,6′R,7′S,12′S)-6-chloro-7′-hydroxy-7′,12′-dimethyl-3,4-dihydro-2H,15′H-spiro[naphthalene-1,22′-[20]oxa[13]thia[1,14]diazatetracyclo [14.7.2.0~3,6~.0~19,24~]pentacosa[16,18,24]trien]-15′-one 13′,13′-dioxide], in assay [1], the pIC50 is 8.13.

Regarding `CC(C)N1CCO[C@]2(/C=C/C[C@H](C)[C@@H](C)S(=O)(=O)NC(=O)c3ccc4c(c3)N(C[C@@H]3CC[C@H]32)C[C@@]2(CCCc3cc(Cl)ccc32)CO4)C1` [Example 127, (1 S,3′R,6′R,7′S,8′E, 11′S,12′R)-6-chloro-11′,12′-dimethyl-4″-(1-methylethyl)-3,4-dihydro-2H,15′H-dispiro[naphthalene-1,22′-[20]oxa[13]thia[1,14]diazatetracyclo[14.7.2.0-3,6˜.0˜19,24˜]pentacosa[8,16,18,24]tetraene-7′,2″-[1,4]oxazinan]-15′-one 13′,13′-dioxide], in assay [1] (setting [4]), the pIC50 was 9.40. Consider `C[C@@H]1[C@@H](C)C/C=C/[C@](O)(C#CCCCN2CCOCC2)[C@@H]2CC[C@H]2CN2C[C@@]3(CCCc4cc(Cl)ccc43)COc3ccc(cc32)C(=O)NS1(=O)=O` [Example 100494, (1S,3′R,6′R,7′R,8′E,11′S,12′R)-6-chloro-7′-hydroxy-11′,12′-dimethyl-7′-(5-(4-morpholinyl)-1-pentyn-1-yl)-3,4-dihydro-2H,15′H-spiro[naphthalene-1,22′-[20]oxa[13]thia[1,14]diazatetracyclo [14.7.2.0~3,6~.0~19,24~]pentacosa[8,16,18,24]tetraen]-15′-one 13′,13′-dioxide], for which the negative-log IC50 (pIC50) in assay [1] (setting [3]) is 10.11. Same read-out and setting: next, `C[C@H]1CC/C=C/[C@](C)(O)[C@@H]2CC[C@H]2CN2C[C@@]3(CCCc4cc(Cl)ccc43)COc3ccc(cc32)C(=O)NS1(=O)=O` (single isomer, unassigned) [Example 100029]: 8.06; `C[C@@]1(O)CCCCCS(=O)(=O)NC(=O)c2ccc3c(c2)N(C[C@@H]2CC[C@H]21)C[C@@]1(CCCc2cc(Cl)ccc21)CO3` [Example 100024, (1S,3′R,6′R,7′R)-6-chloro-7′-hydroxy-7′-methyl-3,4-dihydro-2H,15′H-spiro[naphthalene-1,22′-[20]oxa[13]thia[1,14]diazatetracyclo [14.7.2.0~3,6~.0~19,24~]pentacosa[16,18,24]trien]-15′-one 13′,13′-dioxide]: 8.21; `C[C@@H]1CC[C@@H]2CC2[C@](C)(O)[C@@H]2CC[C@H]2CN2C[C@@]3(CCCc4cc(Cl)ccc43)COc3ccc(cc32)C(=O)NS1(=O)=O` (stereo in doubt) [Example 100033, (1S,3′R,6′R,7′S,8′S,13′R)-6-chloro-7′-hydroxy-7′,13′-dimethyl-3,4-dihydro-2H,16′H-spiro[naphthalene-1,23′-[21]oxa[14]thia[1,15]diazapentacyclo [15.7.2.0~3,6~.0~8,10~.0~20,25~]hexacosa [17,19,25]trien]-16′-one 14′,14′-dioxide]: 8.55. The same measure, in the same setting: next, `CO[C@@]1(CO)/C=C/C[C@H](C)[C@@H](C)S(=O)(=O)NC(=O)c2ccc3c(c2)N(C[C@@H]2CC[C@H]21)C[C@@]1(CCCc2cc(Cl)ccc21)CO3` [Example 100001, (1 S,3′R,6′R,7′S, 8′E,11′S, 12′R)-6-chloro-7′-(hydroxymethyl)-7′-methoxy-11′,12′-dimethyl-3,4-dihydro-2H, 15′H-spiro[naphthalene-1,22′-[20]oxa[13]thia[1,14]diazatetracyclo[14.7.2.˜3,6˜.0˜19,24˜]pentacosa[8,16,18,24]tetraen]-15′-one 13′,13′-dioxide]: 10.26. Take `CCO[C@]1(CN2CCN3CCCC[C@@H]3C2)/C=C/C[C@H](C)[C@@H](CCOC)S(=O)(=O)NC(=O)c2ccc3c(c2)N(C[C@@H]2CC[C@H]21)C[C@@]1(CCCc2cc(Cl)ccc21)CO3` [Example 15, (1S,3′R,6′R,7′R,8′E,11′S,12′R)-6-chloro-7′-ethoxy-12′-(2-methoxyethyl)-11′-methyl-7′-((9aR)-octahydro-2H-pyrido[1,2-a]pyrazin-2-ylmethyl)-3,4-dihydro-2H,15′H-spiro[naphthalene-1,22′-[20]oxa[13]thia[1,14]diazatetracyclo[14.7.2.0-3,6˜.0˜19,24˜]pentacosa[8,16,18,24]tetraen]-15′-one 13′,13′-dioxide]: in assay [2] (setting [5]), the pIC50 is 7.15. As to `CO[C@@]1(CN2CCN3CCN(C(C)=O)C[C@@H]3C2)/C=C/C[C@H](C)[C@@H](C)S(=O)(=O)NC(=O)c2ccc3c(c2)N(C[C@@H]2CC[C@H]21)C[C@@]1(CCCc2cc(Cl)ccc21)CO3` [Example 214], in assay [2] (read-out: OPM-2 10% FBS IC50 IP, OPM-2 cells, 10% FBS, 16 h incubation), the pIC50 was 7.08. For the molecule `COCCN(CCOC)C1CCN(C[C@]2(OC)/C=C/C[C@H](C)[C@@H](C)S(=O)(=O)NC(=O)c3ccc4c(c3)N(C[C@@H]3CC[C@H]32)C[C@@]2(CCCc3cc(Cl)ccc32)CO4)CC1` [Example 308, (1S,3′R,6′R,7′S,8′E,11′S,12′R)-7′-((4-(bis(2-methoxyethyl)amino)-1-piperidinyl)methyl)-6-chloro-7′-methoxy-11′,12′-dimethyl-3,4-dihydro-2H,15′H-spiro[naphthalene-1,22′-[20]oxa[13]thia[1,14]diazatetracyclo [14.7.2.0~3,6~.0~19,24~]pentacosa[8,16,18,24]tetraen]-15′-one 13′,13′-dioxide], the pIC50 in assay [2] (setting [5]) was 7.15.
